Results as given in article PMC8972196, “A Set of Experimentally Validated Decoys for the Human CC Chemokine Receptor 7 (CCR7) Obtained by Virtual Screening” (Frontiers in Pharmacology, 2022).

Legend:
human CCR7 [1] = target: T1, human CCR7 (Homo sapiens, UniProt P32248); test: CCL19-induced calcium mobilization assay, U87.CD4 cells expressing CCR7; assay type: cell-based; conditions: for CCR7 antagonism in calcium mobilization assay: CCL19-induced, result in words
T1 construct: expressed in transfected cells
T1 sequence (P32248 25-378): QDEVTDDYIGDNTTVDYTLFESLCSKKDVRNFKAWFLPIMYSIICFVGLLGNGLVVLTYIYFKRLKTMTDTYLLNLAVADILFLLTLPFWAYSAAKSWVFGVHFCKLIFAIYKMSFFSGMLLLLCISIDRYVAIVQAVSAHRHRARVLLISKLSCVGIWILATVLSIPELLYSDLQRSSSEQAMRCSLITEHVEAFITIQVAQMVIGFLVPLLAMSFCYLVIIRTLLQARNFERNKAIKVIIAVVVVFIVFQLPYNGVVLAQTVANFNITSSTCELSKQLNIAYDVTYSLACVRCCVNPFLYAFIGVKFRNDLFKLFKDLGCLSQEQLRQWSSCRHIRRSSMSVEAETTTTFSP
Method in brief: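 Calcium mobilization was recorded in U87.CD4 cells stably carrying human CXCR2 (stimulated with CXCL8), CCR7 (stimulated with CCL19) or CCR5. Cells were plated at 20,000 cells/well, cultured overnight at 37°C in 5% CO2, and incubated 45 min at room temperature in the dark before reading.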

CCR7 = system: CCR7; set-up: method as in Jaeger et al., 2019; conditions: result in words; ref Jaeger et al., 2019; cited from earlier work
human CCR7 [2] = target: T1, human CCR7; test: CCR7 competition binding assay with CCL19^AF647 (flow cytometry, whole cells); conditions: for IC50: inhibition of CCL19^AF647 binding, Mean ± SD of four independent experiments; for inhibition of CCL19^AF647 binding / CCR7 affinity: result in words
Experimental: In brief, U87.CD4.CCR7 cells were pre-incubated with compound (at different concentrations) in 150 μL assay buffer [Hank’s balanced salt solution (HBSS), 20 mM HEPES and 0.5% Fetal Calf Serum] for 15 min at room temperature (RT) in the dark. Afterwards, 50 μL of CCL19^AF647 was added (25 ng/mL final concentration) and samples were incubated for another 30 min at RT, protected from light. Then, cells were washed twice with assay buffer and fixed in 1% paraformaldehyde in Dulbecco’s phosphate-buffered saline (DPBS).
Samples were immediately analyzed by flow cytometry (FACS Canto II, BD). Data were analysed using Flowjo. The percentage inhibition of CCL19^AF647 binding was calculated according to formula {1—[(MFIX–MFINC)/(MFIPC–MFINC)]} x 100, where MFIX is the mean fluorescence intensity (MFI) of the compound-treated sample, MFINC the MFI of the negative control (i.e., autofluorescence of untreated and unlabeled cells) and MFIPC the MFI of the positive control (i.e., cells exposed to CCL19^AF647 only). […] For each experiment the stain index (SI) was calculated as the ratio of the separation between MFIPC and MFINC, divided by two times the standard deviation of MFINC.

[3] = CCL19 induced calcium signaling, read-out: IC50 [μM] block CCL19 induced calcium signaling
[4] = classification as decoy or active on CCR7
[5] = classification of tested compounds as decoy or active

Row | Compound | IC50 (human CCR7 [1]; [3]) [µM] | Decoy – 0 Active – 1 (human CCR7 [1]; [4]) | also measured
1 | Cc1ccc(S(=O)(=O)C(CNS(=O)(=O)c2ccc(F)cc2)c2cccnc2)cc1 (stereo not drawn) [C262, Cc1ccc(cc1)S(=O)(=O)C(CNS(=O)(=O)c2ccc(cc2)F)c3cccnc3] | > 50 | 0 | –
2 | COc1ccc(S(=O)(=O)N(CC(=O)N2CCCC2)c2ccc(Cl)cc2)cc1 [C263, COc1ccc(cc1)S(=O)(=O)N(CC(=O)N2CCCC2)c3ccc(cc3)Cl] | > 50 | 0 | –
3 | Cc1ccc(S(=O)(=O)NC(C)C(c2ccccc2)N2CCOCC2)cc1 (stereo not drawn) [C264, Cc1ccc(cc1)S(=O)(=O)NC(C)C(c2ccccc2)[NH+]3CCOCC3] | – | 0 | IC50 (human CCR7 [1]): > 50 µM
4 | COc1ccc(S(=O)(=O)N2CC(C(=O)Nc3ccccc3)Oc3ccccc32)cc1 (stereo not drawn) [C265, COc1ccc(cc1)S(=O)(=O)N2CC(Oc3c2cccc3)C(=O)Nc4ccccc4] | > 50 | 0 | –
5 | Cc1ccc(S(=O)(=O)N2c3ccccc3CC2CO)cc1[N+](=O)[O-] (stereo not drawn) [C266, Cc1ccc(cc1[N+](=O)[O-])S(=O)(=O)N2c3ccccc3CC2CO] | > 50 | 0 | –
6 | COc1ccc(S(=O)(=O)NC(c2ccc(F)cc2)c2nccn2C)cc1 (stereo not drawn) [C267, Cn1ccnc1C(c2ccc(cc2)F)NS(=O)(=O)c3ccc(cc3)OC] | > 50 | 0 | –
7 | CC1CN(S(=O)(=O)c2ccc(CCC(=O)O)cc2)c2ccccc21 (stereo not drawn) [C268, CC1CN(c2c1cccc2)S(=O)(=O)c3ccc(cc3)CCC(=O)[O-]] | > 50 | 0 | –
8 | Cn1cc(C2CN(S(=O)(=O)c3ccc4c(c3)CCCC4)CC2CO)cn1 (stereo not drawn) [C269, Cn1cc(cn1)C2CN(CC2CO)S(=O)(=O)c3ccc4c(c3)CCCC4] | > 50 | 0 | –
9 | CNC(=O)CN(c1ccc(Cl)cc1)S(=O)(=O)c1ccc(OC)c(OC)c1 [C270, CNC(=O)CN(c1ccc(cc1)Cl)S(=O)(=O)c2ccc(c(c2)OC)OC] | > 50 | 0 | –
10 | COc1ccc(CCNC(=O)CN(c2ccc([N+](=O)[O-])cc2)S(=O)(=O)c2ccccc2)cc1 [C271, COc1ccc(cc1)CCNC(=O)CN(c2ccc(cc2)[N+](=O)[O-])S(=O)(=O)c3ccccc3] | > 50 | 0 | –
11 | CC1CN(C(=O)C(C)N2CCC(NS(=O)(=O)c3ccccc3)CC2)CC(C)O1 (stereo not drawn) [C272, CC1CN(CC(O1)C)C(=O)C(C)[NH+]2CCC(CC2)NS(=O)(=O)c3ccccc3] | > 50 | 0 | –
12 | COc1ccc(C(=O)C2CCCN(Cc3cc4ccccc4[nH]3)C2)c(OC)c1 (stereo not drawn) [C273, COc1ccc(C(=O)C2CCCN(Cc3cc4ccccc4[nH]3)C2)c(OC)c1] | > 50 | 0 | –
13 | Cc1nc[nH]c1C(=O)NC1CC(=O)N(Cc2ccccc2Cl)C1 (stereo not drawn) [C274, Cc1nc[nH]c1C(=O)NC1CC(=O)N(Cc2ccccc2Cl)C1] | > 50 | 0 | –
14 | CN1CCN(CCC2CCCCN2Cc2nc3ccccc3[nH]2)CC1 (stereo not drawn) [C275, CN1CCN(CCC2CCCCN2Cc2nc3ccccc3[nH]2)CC1] | > 50 | 0 | –
15 | Cc1nc[nH]c1C(=O)NC1CC(=O)N(Cc2cccc3ccccc23)C1 (stereo not drawn) [C276, Cc1nc[nH]c1C(=O)NC1CC(=O)N(Cc2cccc3ccccc23)C1] | > 50 | 0 | –
16 | O=C1CC(NCc2nc3ccccc3[nH]2)CN1Cc1ccccc1C(F)(F)F (stereo not drawn) [C277, O=C1CC(NCc2nc3ccccc3[nH]2)CN1Cc1ccccc1C(F)(F)F] | > 50 | 0 | –

Row | Compound | IC50 (human CCR7 [1]; [3]) [µM] | Decoy – 0 Active – 1 (human CCR7 [1]; [4]) | also measured
17 | CCN(Cc1ccc(Cl)cc1)Cc1cc(=O)c2cccc(F)c2[nH]1 [C278, CCN(Cc1ccc(Cl)cc1)Cc1cc(=O)c2cccc(F)c2[nH]1] | > 50 | 0 | –
18 | COc1cccc(C2CC(O)CN2Cc2nc3ccccc3[nH]2)c1 (stereo not drawn) [C279, COc1cccc(C2CC(O)CN2Cc2nc3ccccc3[nH]2)c1] | > 50 | 0 | –
19 | O=C(c1cn2ccccc2n1)N(CCN1CCCC1)Cc1ccc(Cl)c(Cl)c1 [C280, O=C(c1cn2ccccc2n1)N(CCN1CCCC1)Cc1ccc(Cl)c(Cl)c1] | > 50 | 0 | –
20 | CC1CN(Cc2ccccc2)CCC1N(C)CC(=O)NC12CC3CC(CC(C3)C1)C2 (stereo not drawn) [C281, CC1CN(Cc2ccccc2)CCC1N(C)CC(=O)NC12CC3CC(CC(C3)C1)C2] | > 50 | 0 | –
21 | CCN1CCCC1C1CCCN1C(=O)CCc1c[nH]c2ccccc12 (stereo not drawn) [C282, CCN1CCCC1C1CCCN1C(=O)CCc1c[nH]c2ccccc12] | > 50 | 0 | –
22 | CCN(CC)C(CNC(=O)c1ccc(C)[nH]c1=O)Cc1ccccc1 (stereo not drawn) [C283, CCN(CC)C(CNC(=O)c1ccc(C)[nH]c1=O)Cc1ccccc1] | – | 0 | IC50 (human CCR7 [1]): > 50 µM
23 | O=C(CN1CCCC1Cc1ccccc1Cl)NC1CCCCNC1=O (stereo not drawn) [C284, O=C(CN1CCCC1Cc1ccccc1Cl)NC1CCCCNC1=O] | > 50 | 0 | –
24 | O=C(NCC(=O)N1CCCC1c1ccc2c(c1)OCO2)c1cc2ccccc2[nH]1 (stereo not drawn) [C285, O=C(NCC(=O)N1CCCC1c1ccc2c(c1)OCO2)c1cc2ccccc2[nH]1] | > 50 | 0 | –
25 | O=C1CCCc2[nH]c(=O)c(C(=O)NC3CCc4cc(F)ccc43)cc21 (stereo not drawn) [C286, O=C1CCCc2[nH]c(=O)c(C(=O)NC3CCc4cc(F)ccc43)cc21] | > 50 | 0 | –
26 | CN(C)C(=O)c1ccc(CN2CCCC2c2cccc(Cl)c2)[nH]1 (stereo not drawn) [C287, CN(C)C(=O)c1ccc(CN2CCCC2c2cccc(Cl)c2)[nH]1] | > 50 | 0 | –
27 | CCOc1ccc(NC(=O)C2CCN(C3=NS(=O)(=O)C(c4ccc(OC)cc4)=C3C)CC2)cc1 [CS-1] | – | – | thermal stabilization of CCR7 (CCR7): hits in the thermofluor stability assay, albeit less potent than cmp2105 and navarixin
28 | COCCNc1c(Nc2cccc(C#N)c2)c(=O)c1=O [CS-2, 3-((2-((2-Methoxyethyl)amino)-3,4-dioxocyclobut-1-en-1-yl)amino)benzonitrile, reference compound] | – | – | IC50 (human CCR7 [2]): > 50 µM; inhibition of CCL19^AF647 binding / CCR7 affinity (human CCR7 [2]): did not show any CCR7 affinity; IC50 (human CCR7 [1]): > 50 µM; CCR7 antagonism in calcium mobilization assay (human CCR7 [1]): inactive; Decoy – 0 Active – 1 (human CCR7 [1]; [5]): 0; thermal stabilization of CCR7 (CCR7): hits in the thermofluor stability assay, albeit less potent than cmp2105 and navarixin
29 | CCOC(=O)N1CCC(Nc2c(NCCOC)c(=O)c2=O)CC1 [CS-3, Ethyl 4-((2-((2-methoxyethyl)amino)-3,4-dioxocyclobut-1-en-1-yl)amino)piperidine-1-carboxylate, reference compound] | – | – | IC50 (human CCR7 [2]): > 50 µM; inhibition of CCL19^AF647 binding / CCR7 affinity (human CCR7 [2]): did not show any CCR7 affinity; IC50 (human CCR7 [1]): > 50 µM; CCR7 antagonism in calcium mobilization assay (human CCR7 [1]): inactive; Decoy – 0 Active – 1 (human CCR7 [1]; [5]): 0; thermal stabilization of CCR7 (CCR7): hits in the thermofluor stability assay, albeit less potent than cmp2105 and navarixin
30 | CC(C)(C)c1ccc(S(=O)(=O)Nc2ccc(Cl)cc2C(=O)c2cc[n+]([O-])cc2)cc1 [Vercirnon] | – | – | thermal stabilization of CCR7 (CCR7): completely lacked the ability to thermally stabilize CCR7
31 | Maraviroc [reference compound] | – | – | CCR7 antagonism in calcium mobilization assay (human CCR7 [1]): absence of activity; Decoy – 0 Active – 1 (human CCR7 [1]; [5]): 0; thermal stabilization of CCR7 (CCR7): completely lacked the ability to thermally stabilize CCR7
